Each molecule was assayed against human activated kallikrein enzyme (Homo sapiens, UniProt P03952) (assay: Plasma kallikrein inhibition, fluorogenic PFR-AMC substrate, 500 pM activated kallikrein format). Conditions: 500 pM activated kallikrein, 300 uM PFR-AMC, 30 min preincubation, 10 min reaction; read-out: Primary Dose Response Assay: Average EC50.
Type: biochemical
How it was run: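 High-enzyme format of the fluorogenic peptide assay, with EC50 taken from AMC signal: 500 pM activated kallikrein, 300 uM Pro-Phe-Arg-AMC, 30 min compound preincubation and 10 min reaction, all at room temperature, pH 7.5.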

Sequence of human activated kallikrein enzyme (P03952 391-638 limits assumed): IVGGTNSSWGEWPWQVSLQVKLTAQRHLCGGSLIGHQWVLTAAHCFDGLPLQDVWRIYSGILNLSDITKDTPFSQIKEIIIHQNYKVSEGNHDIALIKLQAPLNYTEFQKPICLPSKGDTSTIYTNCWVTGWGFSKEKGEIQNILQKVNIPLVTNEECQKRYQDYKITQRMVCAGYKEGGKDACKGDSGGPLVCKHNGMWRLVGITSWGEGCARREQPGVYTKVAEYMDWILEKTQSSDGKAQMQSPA
Sequence of human activated kallikrein enzyme (P03952 20-390 partner limits assumed): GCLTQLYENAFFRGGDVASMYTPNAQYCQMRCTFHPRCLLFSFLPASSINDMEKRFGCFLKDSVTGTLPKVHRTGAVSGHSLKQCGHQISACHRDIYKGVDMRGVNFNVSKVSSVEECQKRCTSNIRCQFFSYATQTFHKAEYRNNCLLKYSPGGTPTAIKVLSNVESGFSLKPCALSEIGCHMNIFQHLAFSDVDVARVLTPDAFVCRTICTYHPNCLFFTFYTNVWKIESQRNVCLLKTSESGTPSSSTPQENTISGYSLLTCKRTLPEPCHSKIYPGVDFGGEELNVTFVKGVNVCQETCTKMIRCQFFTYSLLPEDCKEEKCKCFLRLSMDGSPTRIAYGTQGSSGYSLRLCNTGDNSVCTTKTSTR

EC50 [nM] | SMILES
1 to 10 | Cc1ccnc([C@H]2C[C@@H]2C(=O)Nc2cc(NCc3cn4cc(C5CC5)cc(N5CC(=O)N(C)C5=O)c4n3)c(Cl)nn2)n1 [Example I-247, (1S,2S)-N-(6-chloro-5-(((6-cyclopropyl-8-(3-methyl-2,4-dioxoimidazolidin-1-yl)imidazo[1,2-a]pyridin-2-yl)methyl)amino)pyridazin-3-yl)-2-(4-methylpyrimidin-2-yl)cyclopropane-1-carboxamide]
> 6000 | CC(C)(C)OC(=O)Nc1cc(Cl)cc([C@H]2C[C@@H]2C(=O)Nc2cc(NCc3cn4cc(C5CC5)ccc4n3)ncn2)c1 (racemic) [Example I-189, rac-tert-butyl (3-chloro-5-((1S*,2S*)-2-((6-(((6-cyclopropylimidazo[1,2-a]pyridin-2-yl)methyl)amino)pyrimidin-4-yl)carbamoyl)cyclopropyl)phenyl)carbamate]
< 1 | N#Cc1ccc(Cl)cc1[C@H]1C[C@@H]1C(=O)Nc1cc(NCc2cn3cc(C4CC4)ccc3n2)ccn1 (single isomer, unassigned) [Example 84]
1 to 10 | O=C(Nc1cc(NCc2cn3cc(C4CC4)cc(N4CCN5CC(F)(F)CC5C4)c3n2)ccn1)[C@H]1C[C@@H]1c1cccc(Cl)c1 (stereo partly drawn) [Example I-230, (1S,2S)-2-(3-chlorophenyl)-N-(4-(((6-cyclopropyl-8-(7,7-difluorohexahydropyrrolo[1,2-a]pyrazin-2(1H)-yl)imidazo[1,2-a]pyridin-2-yl)methyl)amino)pyridin-2-yl)cyclopropane-1-carboxamide]
< 1 | Cc1ccnc([C@H]2C[C@@H]2C(=O)Nc2cc(NC(CO)c3cn4cc(C5CC5)cc(N5CC(=O)N(C)C5=O)c4n3)nc(C)n2)n1 (stereo partly drawn) [Example I-650, (1S,2S)—N-(6-((1-(6-cyclopropyl-8-(3-methyl-2,4-dioxoimidazolidin-1-yl)imidazo[1,2-a]pyridin-2-yl)-2-hydroxyethyl)amino)-2-methylpyrimidin-4-yl)-2-(4-methylpyrimidin-2-yl)cyclopropane-1-carboxamide]
< 1 | O=C(Nc1cc(NCc2cn3cc(C4CC4)ccc3n2)ncn1)[C@@H]1C[C@]12C(=O)Nc1ccc(Cl)cc12 (racemic) [Example 509, rac-(1R*,2S*)-5′-chloro-N-(6-(((6-cyclopropylimidazo[1,2-a]pyridin-2-yl)methyl)amino)pyrimidin-4-yl)-2′-oxospiro[cyclopropane-1,3′-indoline]-2-carboxamide]
1 to 10 | O=C(Nc1cc(NCc2cn3cc(C4CC4)cc(Cl)c3n2)ncn1)[C@H]1C[C@@H]1c1cccc(Cl)c1 (racemic) [Example 59, rac-(1S*,2S*)-N-(6-(((8-chloro-6-cyclopropylimidazo[1,2-α]pyridin-2-yl)methyl)amino)pyrimidin-4-yl)-2-(3-chlorophenyl)cyclopropane-1-carboxamide]
1 to 10 | O=C(Nc1cc(NCc2cn3cc(C4CC4)ccc3n2)ncn1)[C@H]1C[C@@H]1c1cc(Cl)ccn1 (racemic) [Example I-265, rac-(1S*,2S*)-2-(4-chloropyridin-2-yl)-N-(6-(((6-cyclopropylimidazo[1,2-a]pyridin-2-yl)methyl)amino)pyrimidin-4-yl)cyclopropane-1-carboxamide]
100 to 1000 | CSc1nc(NCc2cn3cc(C4CC4)ccc3n2)cc(NC(=O)[C@@H]2C[C@H]2c2cccc(Cl)c2)n1 (racemic) [Example 106, rac-(1S*,2S*)-2-(3-chlorophenyl)-N-(6-(((6-cyclopropylimidazo[1,2-a]pyridin-2-yl)methyl)amino)-2-(methylthio)pyrimidin-4-yl)cyclopropane-1-carboxamide]
1 to 10 | O=C(Nc1cc(NCc2cn3cc(C4CC4)cc(N4CCC(O)CC4)c3n2)ncn1)[C@H]1C[C@@H]1c1cccc(Cl)c1 (stereo in doubt) [Example I-3, (1S,2S)-2-(3-chlorophenyl)-N-(6-(((6-cyclopropyl-8-(4-hydroxypiperidin-1-yl)imidazo[1,2-a]pyridin-2-yl)methyl)amino)pyrimidin-4-yl)cyclopropane-1-carboxamide]
1 to 10 | CC1OCCN(c2cc(C3CC3)cn3cc(CNc4cc(NC(=O)[C@H]5C[C@@H]5c5cccc(Cl)c5)ncn4)nc23)C1=O (relative stereo) [Example 68, rac-(1S*,2S*)-2-(3-chlorophenyl)-N-(6-(((6-cyclopropyl-8-(2-methyl-3-oxomorpholino)imidazo[1,2-α]pyridin-2-yl)methyl)amino)pyrimidin-4-yl)cyclopropane-1-carboxamide]
10 to 100 | O=C(Nc1cc(NCc2cn3cc(C4CC4)ccc3n2)ccn1)[C@H]1C[C@@H]1c1cncc(Cl)c1 (racemic) [Example I-221, rac-(1S*,2S*)-2-(5-chloropyridin-3-yl)-N-(4-(((6-cyclopropylimidazo[1,2-a]pyridin-2-yl)methyl)amino)pyridin-2-yl)cyclopropane-1-carboxamide]
1 to 10 | CN(C)C1CCN(c2cc(C3CC3)cn3cc(CNc4cc(NC(=O)[C@H]5C[C@@H]5c5cccc(Cl)c5)ncn4)nc23)C1 (single isomer, unassigned) [Example I-14]
10 to 100 | O=C(Nc1cc(NCc2cn3cc(C4CC4)ccc3n2)ccn1)[C@H]1C[C@@H]1c1ccnc(Cl)c1 (racemic) [Example I-220, rac-(1S*,2S*)-2-(2-chloropyridin-4-yl)-N-(4-(((6-cyclopropylimidazo[1,2-a]pyridin-2-yl)methyl)amino)pyridin-2-yl)cyclopropane-1-carboxamide]
1 to 10 | O=C(Nc1cc(NCc2cn3cc(C4CC4)cc(N4CCN(C5CC5)CC4)c3n2)ncn1)[C@H]1C[C@@H]1c1cccc(Cl)c1 [Example I-201, (1S,2S)-2-(3-chlorophenyl)-N-(6-(((6-cyclopropyl-8-(4-cyclopropylpiperazin-1-yl)imidazo[1,2-a]pyridin-2-yl)methyl)amino)pyrimidin-4-yl)cyclopropane-1-carboxamide]
< 1 | Cc1ccnc([C@H]2C[C@@H]2C(=O)Nc2cc(OC(C)c3cn4cc(C5CC5)cc(N5CC(=O)N(C)C5=O)c4n3)c(C)nn2)n1 (stereo partly drawn) [Example 35, (1S,2S)-N-(5-(1-(6-cyclopropyl-8-(3-methyl-2,4-dioxoimidazolidin-1-yl)imidazo[1,2-α]pyridin-2-yl)ethoxy)-6-methylpyridazin-3-yl)-2-(4-methylpyrimidin-2-yl)cyclopropane-1-carboxamide]
10 to 100 | Nc1cc(Cl)cc([C@H]2C[C@@H]2C(=O)Nc2cc(NCc3cn4cc(C5CC5)ccc4n3)ncn2)c1 (racemic) [Example I-256, rac-(1S*,2S*)-2-(3-amino-5-chlorophenyl)-N-(6-(((6-cyclopropylimidazo[1,2-a]pyridin-2-yl)methylamino)pyrimidin-4-yl)cyclopropane-1-carboxamide]
1 to 10 | O=C(NCc1cn(Cc2cn3cc(C4CC4)cc(-n4cnnc4)c3n2)nn1)[C@H]1C[C@@H]1c1cccc(Cl)c1 [Example 591, (1S,2S)-2-(3-chlorophenyl)-N-((1-((6-cyclopropyl-8-(4H-1,2,4-triazol-4-yl)imidazo[1,2-a]pyridin-2-yl)methyl)-1H-1,2,3-triazol-4-yl)methyl)cyclopropane-1-carboxamide]

From patent publication US20240228488A1 (TAKEDA PHARMACEUTICAL COMPANY LIMITED, priority 2021, published 2024)
